Source: ChEMBL document CHEMBL4002553, “Dragmacidins G and H, Bisindole Alkaloids Tethered by a Guanidino Ethylthiopyrazine Moiety, from a Lipastrotethya sp. Marine Sponge” (J Nat Prod, 2016)
pIC50: −log10 of the molar value.

Each compound was assayed on HeLa (assay: Cytotoxicity against human HeLa cells after 72 hrs by MTT assay).
Assay type: functional, cell-based

Point of comparison: `O=C(c1nc(-c2c[nH]c3ccccc23)c[nH]1)c1c[nH]c2cc(O)ccc12` [TOPSENTIN], pIC50 5.36. Against it:
- N=C(N)NCCSc1nc(-c2c[nH]c3cc(Br)ccc23)cnc1-c1c[nH]c2cc(Br)ccc12 — within 0.2 log units, 5.38
- N=C(N)NCCSc1nc(-c2c[nH]c3ccccc23)cnc1-c1c[nH]c2cc(Br)ccc12 — within 0.2 log units, 5.34
- O=C(c1nc(-c2c[nH]c3cc(Br)ccc23)c[nH]1)c1c[nH]c2cc(O)ccc12 [BROMOTOPSENTIN] — 0.41 log units higher, 5.77
